Measured values from ChEMBL document CHEMBL1177779, “Development of dual functional SPECT/fluorescent probes for imaging cerebral beta-amyloid plaques” (Bioorg Med Chem Lett, 2010).
pKi: −log10 of the molar value.

How the values were obtained:
Brain [1] = experiment: Biodistribution in ddY mouse brain assessed per gram of tissue at 7.77 KBq, iv after 30 mins by gamma counting; assay type: ADME, organism-based; details: in vivo, 0.5 h
Intestine [2] = experiment: Biodistribution in ddY mouse intestine assessed per gram of tissue at 7.77 KBq, iv after 60 mins by gamma counting; assay type: ADME, organism-based; details: in vivo, 1 h
Spleen [3] = experiment: Biodistribution in ddY mouse spleen assessed per gram of tissue at 7.77 KBq, iv after 60 mins by gamma counting; assay type: ADME, organism-based; details: in vivo, 1 h
Pancreas [4] = experiment: Biodistribution in ddY mouse pancreas assessed per gram of tissue at 7.77 KBq, iv after 60 mins by gamma counting; assay type: ADME, organism-based; details: in vivo, 1 h
Blood [5] = experiment: Biodistribution in ddY mouse blood assessed per gram of tissue at 7.77 KBq, iv after 2 mins by gamma counting; assay type: ADME, organism-based; details: in vivo
Liver [6] = experiment: Biodistribution in ddY mouse liver assessed per gram of tissue at 7.77 KBq, iv after 10 mins by gamma counting; assay type: ADME, organism-based; details: in vivo
Brain [7] = experiment: Biodistribution in ddY mouse brain assessed per gram of tissue at 7.77 KBq, iv after 10 mins by gamma counting; assay type: ADME, organism-based; details: in vivo
Intestine [8] = experiment: Biodistribution in ddY mouse intestine assessed per gram of tissue at 7.77 KBq, iv after 30 mins by gamma counting; assay type: ADME, organism-based; details: in vivo, 0.5 h
Kidney [9] = experiment: Biodistribution in ddY mouse kidney assessed per gram of tissue at 7.77 KBq, iv after 30 mins by gamma counting; assay type: ADME, organism-based; details: in vivo, 0.5 h
Liver [10] = experiment: Biodistribution in ddY mouse liver assessed per gram of tissue at 7.77 KBq, iv after 60 mins by gamma counting; assay type: ADME, organism-based; details: in vivo, 1 h
Brain [11] = experiment: Biodistribution in ddY mouse brain assessed per gram of tissue at 7.77 KBq, iv after 60 mins by gamma counting; assay type: ADME, organism-based; details: in vivo, 1 h
Kidney [12] = experiment: Biodistribution in ddY mouse kidney assessed per gram of tissue at 7.77 KBq, iv after 60 mins by gamma counting; assay type: ADME, organism-based; details: in vivo, 1 h
Heart [13] = experiment: Biodistribution in ddY mouse heart assessed per gram of tissue at 7.77 KBq, iv after 2 mins by gamma counting; assay type: ADME, organism-based; details: in vivo
Brain [14] = experiment: Biodistribution in ddY mouse brain assessed per gram of tissue at 7.77 KBq, iv after 2 mins by gamma counting; assay type: ADME, organism-based; details: in vivo
Spleen [15] = experiment: Biodistribution in ddY mouse spleen assessed per gram of tissue at 7.77 KBq, iv after 10 mins by gamma counting; assay type: ADME, organism-based; details: in vivo
Spleen [16] = experiment: Biodistribution in ddY mouse spleen assessed per gram of tissue at 7.77 KBq, iv after 2 mins by gamma counting; assay type: ADME, organism-based; details: in vivo
Pancreas [17] = experiment: Biodistribution in ddY mouse pancreas assessed per gram of tissue at 7.77 KBq, iv after 2 mins by gamma counting; assay type: ADME, organism-based; details: in vivo
Stomach [18] = experiment: Biodistribution in ddY mouse stomach assessed per organ at 7.77 KBq, iv after 10 mins by gamma counting; assay type: ADME, organism-based; details: in vivo
Spleen [19] = experiment: Biodistribution in ddY mouse spleen assessed per gram of tissue at 7.77 KBq, iv after 30 mins by gamma counting; assay type: ADME, organism-based; details: in vivo, 0.5 h
Stomach [20] = experiment: Biodistribution in ddY mouse stomach assessed per organ at 7.77 KBq, iv after 2 mins by gamma counting; assay type: ADME, organism-based; details: in vivo
Pancreas [21] = experiment: Biodistribution in ddY mouse pancreas assessed per gram of tissue at 7.77 KBq, iv after 10 mins by gamma counting; assay type: ADME, organism-based; details: in vivo
Heart [22] = experiment: Biodistribution in ddY mouse heart assessed per gram of tissue at 7.77 KBq, iv after 30 mins by gamma counting; assay type: ADME, organism-based; details: in vivo, 0.5 h
Blood [23] = experiment: Biodistribution in ddY mouse blood assessed per gram of tissue at 7.77 KBq, iv after 60 mins by gamma counting; assay type: ADME, organism-based; details: in vivo, 1 h
Heart [24] = experiment: Biodistribution in ddY mouse heart assessed per gram of tissue at 7.77 KBq, iv after 60 mins by gamma counting; assay type: ADME, organism-based; details: in vivo, 1 h
Stomach [25] = experiment: Biodistribution in ddY mouse stomach assessed per organ at 7.77 KBq, iv after 30 mins by gamma counting; assay type: ADME, organism-based; details: in vivo, 0.5 h
Kidney [26] = experiment: Biodistribution in ddY mouse kidney assessed per gram of tissue at 7.77 KBq, iv after 2 mins by gamma counting; assay type: ADME, organism-based; details: in vivo
Stomach [27] = experiment: Biodistribution in ddY mouse stomach assessed per organ at 7.77 KBq, iv after 60 mins by gamma counting; assay type: ADME, organism-based; details: in vivo, 1 h
Blood [28] = experiment: Biodistribution in ddY mouse blood assessed per gram of tissue at 7.77 KBq, iv after 30 mins by gamma counting; assay type: ADME, organism-based; details: in vivo, 0.5 h
Intestine [29] = experiment: Biodistribution in ddY mouse intestine assessed per gram of tissue at 7.77 KBq, iv after 2 mins by gamma counting; assay type: ADME, organism-based; details: in vivo
Blood [30] = experiment: Biodistribution in ddY mouse blood assessed per gram of tissue at 7.77 KBq, iv after 10 mins by gamma counting; assay type: ADME, organism-based; details: in vivo
Liver [31] = experiment: Biodistribution in ddY mouse liver assessed per gram of tissue at 7.77 KBq, iv after 2 mins by gamma counting; assay type: ADME, organism-based; details: in vivo
Liver [32] = experiment: Biodistribution in ddY mouse liver assessed per gram of tissue at 7.77 KBq, iv after 30 mins by gamma counting; assay type: ADME, organism-based; details: in vivo, 0.5 h
Pancreas [33] = experiment: Biodistribution in ddY mouse pancreas assessed per gram of tissue at 7.77 KBq, iv after 30 mins by gamma counting; assay type: ADME, organism-based; details: in vivo, 0.5 h
Intestine [34] = experiment: Biodistribution in ddY mouse intestine assessed per gram of tissue at 7.77 KBq, iv after 10 mins by gamma counting; assay type: ADME, organism-based; details: in vivo
Heart [35] = experiment: Biodistribution in ddY mouse heart assessed per gram of tissue at 7.77 KBq, iv after 10 mins by gamma counting; assay type: ADME, organism-based; details: in vivo
Kidney [36] = experiment: Biodistribution in ddY mouse kidney assessed per gram of tissue at 7.77 KBq, iv after 10 mins by gamma counting; assay type: ADME, organism-based; details: in vivo
[37] = Displacement of [125I]IMPY from amyloid beta (1-42) after 3 hrs by gamma counting

CC1=CC(C)=[N+]2C1=Cc1ccc(/C=C/c3ccc(-c4ccc([125I])cc4)s3)n1[B-]2(F)F
Drug uptake (Brain [1]): 0.14 % ID/g
Drug uptake (Intestine [2]): 3.04 % ID/g
Drug uptake (Spleen [3]): 21.52 % ID/g
Drug uptake (Pancreas [4]): 0.92 % ID/g
Drug uptake (Blood [5]): 11.67 % ID/g
Drug uptake (Liver [6]): 46.02 % ID/g
Drug uptake (Brain [7]): 0.19 % ID/g
Drug uptake (Intestine [8]): 1.91 % ID/g
Drug uptake (Kidney [9]): 4.46 % ID/g
Drug uptake (Liver [10]): 45.78 % ID/g
Drug uptake (Brain [11]): 0.14 % ID/g
Drug uptake (Kidney [12]): 4.43 % ID/g
Drug uptake (Heart [13]): 5.59 % ID/g
Drug uptake (Brain [14]): 0.4 % ID/g
Drug uptake (Spleen [15]): 26.9 % ID/g
Drug uptake (Spleen [16]): 16.12 % ID/g
Drug uptake (Pancreas [17]): 1.19 % ID/g
Drug uptake (Stomach [18]): 4.73 %ID
Drug uptake (Spleen [19]): 28.21 % ID/g
Drug uptake (Stomach [20]): 1.4 %ID
Drug uptake (Pancreas [21]): 0.74 % ID/g
Drug uptake (Heart [22]): 2.31 % ID/g
Drug uptake (Blood [23]): 2.44 % ID/g
Drug uptake (Heart [24]): 2.3 % ID/g
Drug uptake (Stomach [25]): 4.79 %ID
Drug uptake (Kidney [26]): 5.39 % ID/g
Drug uptake (Stomach [27]): 5.5 %ID
Drug uptake (Blood [28]): 3.09 % ID/g
Drug uptake (Intestine [29]): 0.48 % ID/g
Drug uptake (Blood [30]): 4.09 % ID/g
Drug uptake (Liver [31]): 35.51 % ID/g
Drug uptake (Liver [32]): 45.87 % ID/g
Drug uptake (Pancreas [33]): 0.72 % ID/g
Drug uptake (Intestine [34]): 0.93 % ID/g
Drug uptake (Heart [35]): 2.95 % ID/g
Drug uptake (Kidney [36]): 4.79 % ID/g

CC1=CC(C)=[N+]2C1=Cc1ccc(/C=C/c3ccc(-c4ccc(I)cc4)s3)n1[B-]2(F)F
pKi [37]: 6.97
inhibition [37]: Dose-dependent effect
